Data as given in patent publication US10851109B2, “Compositions and methods of using the same for treatment of neurodegenerative and mitochondrial disease” (Mitokinin, Inc., priority 2014, dated 2020).

Experiments:
[1] = test system: ND2 mutant flies; test: Mechanical stress-induced (bang sensitive) paralysis test in ND2 mutant flies; assay type: in vivo, Drosophila; details: ND2 mutant flies treated throughout life with 10 μM of drug; tested after aging 15 days
From the text: Mutations affecting mitochondrial complex I, a multi-subunit assembly that couples electron transfer to proton pumping, are the most frequent cause of heritable mitochondrial diseases. Here, a Drosophila model of complex I deficiency caused by a homoplasmic mutation in the mitochondrial-encoded NADH dehydrogenase subunit 2 (ND2) gene is used. […] This ND2 mutant model was used in “bang sensitivity” behavioral analysis to show the effects of kinetin treatment.
All Drosophila strains were maintained on standard cornmeal/molasses medium at 25° C. with a 12-hour lightdark cycle. The ND2de11 and ND2ins1 stock was obtained from the laboratory of Dr. Patrick O'Farrell (University of California, San Francisco) (Xu et al., 2008). The isogenic w1118 stock was obtained from the Bloomington Drosophila Stock Center at Indiana University. […]
Drosophila strains with mutations affecting mitochondrial function often show an analogous seizure-like paralytic phenotype caused by mechanical-stress, termed “bang sensitivity” (Celotto et al., 2011; Fergestad et al., 2006; Ganetzky and Wu, 1982). […] Briefly, flies were vortexed for 10 seconds in inverted glass vials containing cotton stoppers, and the time required for each individual animal to right itself was recorded. […]
Unless otherwise stated statistical significance tests were calculated using an unpaired two-tailed Student's t-test.

[2] = test system: mouse primary dopaminergic neuron culture; test: Survival of TH positive dopaminergic neurons in primary mesencephalic culture injured by MPP+; assay type: cell-based; details: for TH neuron survival against MPP+, % of cell survival / dopaminergic (TH positive) neuron survival, percentage of control / decrease of TH positive neurons: MPP+ 4 μM for 48 h
From the text: Parkinson's disease (PD) is the second most common neurodegenerative disorder in the United States. The predominant motor symptoms of PD including slow movement, resting tremor, rigidity, and gait disturbance, are caused by the loss of dopaminergic neurons in the substantia nigra (SN). Although the aetiology of PD remains unknown, both genetic and environmental factors appear to play a role (Paisan-Ruiz et al., 2004; Vila & Przedborski, 2004). The neurotoxicant 1-methyl-4-phenyl-1, 2, 3, 6-tetrahydropyridine (MPTP) is a specific dopaminergic neuronal toxin. MPTP is converted to 1-methyl-4-phenyl pyridinium (MPP+) by astroglia and then causes specific dopaminergic neuronal death in the SN, thus leading to the clinical symptoms of PD in humans, primates and mice (Uhl et al., 1985). For this reason, MPTP-induced dopaminergic neurotoxicity in mice is widely used as a model for PD research. It has been largely reported that MPP+ causes neurodegeneration of dopaminergic neurones in vitro and provides a useful model of Parkinson's disease in vitro. […] This study investigated the neuroprotective effect of Mitokinin test compound (kinetin) in function on time of pre-incubation and concentration on mouse primary mesencephalic cultures injured by exposure to 1-methyl-4-phenylpyridinium (MPP+), a Parkinson' disease model in vitro. BDNF at 10 ng/ml will be used as a positive control in this study.
Mouse dopaminergic neurons are cultured as described by Schinelli et al., 1988 and Viswanath et al., 2001. Briefly pregnant female mouse of 14 days gestation are killed by cervical dislocation (Mouse C57Bl/6; Janvier Labs) and the foetuses are removed from the uterus. The embryonic midbrains are removed and placed in ice-cold medium of Leibovitz (L15; PanBiotech; ref: PO4-27055, batch: 4290114) containing 2% of Penicillin-Streptomycin (PS; PanBiotech; ref: P06-07100; batch: 4810114) and 1% of bovine serum albumin (BSA; PanBiotech; Ref: P06-1391100, batch: K030913). Only the ventral portions of the mesencephalic flexure are used for the cell preparations as this is the region of the developing brain rich in dopaminergic neurons. The midbrains are dissociated by trypsinisation for 20 min at 37° C. (Trypsin EDTA IX; PanBiotech Ref: P10-023100; batch: 1681013). The reaction is stopped by the addition of Dulbecco's modified Eagle's medium (DMEM; PanBiotech Ref PO4-03600; batch: 9710913) containing DNAase I grade II (0.1 mg/ml; Panbiotech, ref: P60-37780100; batch: H130919) and 10% of foetal calf serum (FCS; Invitrogen; ref: 10270-098; batch: 41Q4120K). Cells are then mechanically dissociated by 3 passages through a 10 ml pipette. Cells are then centrifuged at 180×g for 10 min at 4° C. temperature on a layer of BSA (3.5%) in L15 medium. The supernatant is discarded and the cells of pellet is re-suspended in a defined culture medium consisting of Neurobasal (Invitrogen, ref: 21103; batch: 1556347) supplemented with B27 (2%; Invitrogen; ref: 17504; batch: 1446691), L-glutamine (2 mM; PanBiotech; ref: PO4-80100; batch: 6620314) and 2% of PS solution. Viable cells are counted in a Neubauer cytometer using the trypan blue exclusion test. The cells are seeded at a density of 70 000 cells/well in 96 well-plates (wells are pre-coated with poly-L-lysine (Greiner)) and are cultured at 37° C. in a humidified air (95%)/CO2 (5%) atmosphere. Half of the medium are changed every 2 days with fresh medium. In these conditions, after 5 days of culture, astrocytes are present in the culture and release growth factor allowing neurons differentiation. Five to six percents of the neuronal cell population are dopaminergic neurons.
Briefly, on day 5 of culture, the medium was removed and fresh medium was added, without or with kinetin (Sigma ref 48130) at 100 μM, 50 μM, 25 μM and with and without BDNF 10 ng/ml for 2 days, 6 days or 10 days. […]

[3] = test system: SH-SYSY cells; test: Modulation of PINK1: Caspase-Glo caspase 3/7 cleavage after MG-132 in SH-SYSY cells; assay type: cell-based; details: then 25 uM MG-132 for 16 hours, % of kinetin's caspase cleavage values; for Run1 Compound (avg as % kinetin): Run1, compound 96 hours; for Run2 Compound (avg as % kinetin): Run2, compound 96 hours; for Run3 Compound (avg as % kinetin): Run3, compound 96 hours
Method: We grew SH-SYSY cells in 1:1 mix of DMEM and F12 supplemented with 10% FBS and Pen/Strep (1×) antibiotics on 96 well plates (˜5,000 cells/well) at 37 degrees Celsius in 90 ul per well. We added 10 ul of 10× mix of the compounds identified below in a DMSO and medium mix to the cells. (min. 2 wells per compound per plate), allowed it to incubate for 96 hours at 37 degrees Celsius, then added 25 uM MG-132 for 16 hours (a proteasome inhibitor that triggers apoptosis; this toxicity is known to be opposed by PINK1). Following incubation with MG-132 we added 100 ul of Promega Caspase-Glo® reagent directly to each well to lyse cells and provide a luminescent Caspase 3/7 substrate peptide to quantify caspase cleavage activity. All of the values in Table 2 are presented as a % of kinetin's caspase cleavage values (kinentin was run as a positive control in parallel to the analogs of kinetin shown below).

`Nc1ncnc2nc[nH]c12` [Adenine] was tested, and the “mean time necessary for recovery (to right itself) after 10 seconds vortexing” value [1] was “approximately 9 seconds”.

In the case of `c1coc(CNc2ncnc3nc[nH]c23)c1` [Kinetin, kinetin], the “TH neuron survival against MPP+, % of cell survival” value ([2]; Kinetin 25 μM pre-incubated 10 days) is reported as 76%, the “dopaminergic (TH positive) neuron survival, percentage of control” value (“dopaminergic … percentage of control” for short) ([2]; Kinetin 100 μM pre-incubated 2 days) is reported as 70% and the “dopaminergic … percentage of control” value ([2]; Kinetin 100 μM pre-incubated 6 days) is reported as 72%. The “toxicity on dopaminergic neurons on long incubation” value ([2]; Kinetin 100 μM pre-incubated 10 days) was “toxic”, the “TH neuron survival against MPP+, % of cell survival” value ([2]; Kinetin 5004 pre-incubated 10 days) was 84% and the “mean time necessary for recovery (to right itself) after 10 seconds vortexing” value [1] was 0.5 s.

With `C[n+]1ccc(-c2ccccc2)cc1` [MPP^+, 1-methyl-4-phenylpyridinium] the “decrease of TH positive neurons” value ([2]; 2 days pre-incubation series (FIG. 1)) was roughly 50%, the “decrease of TH positive neurons” value ([2]; 6 days pre-incubation series (FIG. 2)) was roughly 54% and the “decrease of TH positive neurons” value ([2]; 10 days pre-incubation series (FIG. 3)) was roughly 47%.

With `c1coc(CC2CNc3ncnc4ncn2c34)c1` (stereo not shown) [MTK- 48, 7-(furan-2-ylmethyl)-8,9-dihydro-7H-imidazo[4,5,1-de]pteridine] the “Run1 Compound (avg as % kinetin)” value [3] was 92%, the “Run2 Compound (avg as % kinetin)” value [3] was 122% and the “Run3 Compound (avg as % kinetin)” value [3] was 95%.

In the case of `c1coc(CNc2ncnc3[nH]ncc23)c1` [MTK- 51, N-(furan-2-ylmethyl)-1H-pyrazolo [3,4-d]pyrimidin-4-amine], the “Run1 Compound (avg as % kinetin)” value [3] is reported as 80% and the “Run2 Compound (avg as % kinetin)” value [3] is reported as 92%.

For `c1coc(CNc2ccnc3[nH]cnc23)c1` [MTK- 58, N-(furan-2-ylmethyl)-3H-imidazo[4,5-b]pyridin-7-amine], the “Run1 Compound (avg as % kinetin)” value [3] was 94% and the “Run2 Compound (avg as % kinetin)” value [3] was 108%.

`c1coc(CNc2ccnc3[nH]ncc23)c1` [MTK- 59, N-(furan-2-ylmethyl)-1H-pyrazolo[3,4-b]pyridin-4-amine] was tested, and the “Run1 Compound (avg as % kinetin)” value [3] was 72% and the “Run2 Compound (avg as % kinetin)” value [3] was 108%.

In the case of `c1coc(CNc2nccc3[nH]ncc23)c1` [MTK- 62, N-(furan-2-ylmethyl)-1H-pyrazolo[4,3-c]pyridin-4-amine], the “Run1 Compound (avg as % kinetin)” value [3] is reported as 88% and the “Run2 Compound (avg as % kinetin)” value [3] is reported as 132%.

With `Cc1nc2c(NCc3ccco3)ncnc2[nH]1` [MTK- 64, N-(furan-2-ylmethyl)-8-methyl-9H-purin-6-amine] the “Run1 Compound (avg as % kinetin)” value [3] was 79%, the “Run2 Compound (avg as % kinetin)” value [3] was 120% and the “Run3 Compound (avg as % kinetin)” value [3] was 93%.

In the case of `Nc1nc(NCc2ccco2)c2nc[nH]c2n1` [MTK- 68, N-6-(furan-2-ylmethyl)-9H-purine-2,6-diamine], the “Run1 Compound (avg as % kinetin)” value [3] is reported as 95%.

B1: BDNF: brain derived neurotrophic factor, used at 10 ng/ml as positive control (protein, UniProt P23560 19-247, looked up)
Neurotrophic factor BDNF …: APMKEANIRGQGGLAYPGVRTHGTLESVNGPKAGSRGLTSLADTFEHVIEELLDEDQKVRPNEENNKDADLYTSRVMLSSQVPLEPPLLFLLEEYKNYLDAANMSMRVRRHSDPARRGELSVCDSISEWVTAADKKTAVDMSGGTVTVLEKVPVSKGQLKQYFYETKCNPMGYTKEGCRGIDKRHWNSQCRTTQSYVRALTMDSKKRIGWRFIRIDTSCVCTLTIKRGR
For B1, the “dopaminergic … percentage of control” value ([2]; BDNF 10 ng/mL, 2 days pre-incubation series) was 87%, the “dopaminergic … percentage of control” value ([2]; BDNF 10 ng/mL, 6 days pre-incubation series) was 84% and the “dopaminergic … percentage of control” value ([2]; BDNF 10 ng/mL, 10 days pre-incubation series) was 91%.
